{"source": "patent US20230151101A1", "about": "“METHODS AND COMPOSITIONS TO ENHANCE HUMORAL IMMUNITY TO REDUCE CYTOMEGALOVIRUS INFECTION AND REACTIVATION BY IL-6 INHIBITION” (Fred Hutchinson Cancer Center, priority 2021, published 2023)", "type_in_all_cases": "in vivo, human", "key": {"MCP-1": {"test_system": "MCP-1", "assay": "plasma MCP-1 in phase III BMT patients", "settings": "day 60 after BMT", "description": "(§1) FIGS. 11A through 11D. IL-6 inhibition with tocilizumab (TCZ) attenuates human CMV (HCMV) viremia after clinical BMT. FIG. 11A. Kinetics of HCMV viremia over time for placebo control versus TCZ groups. FIG. 11B (left). The number of PCR positive events of HCMV viremia plotted in (A) and depicted in the two patient cohorts. FIG. 11B (right). Distribution of HCMV reactivation in the patient cohorts receiving volunteer unrelated donor (VUD) grafts. FIG. 11C. Plasma concentration of MCP-1 at day + 60 after bone marrow transplantation (BMT) in patients was quantified and shown in relation to HCMV reactivation (≥ 600 copies/µL) and TCZ treatment. FIG. 11D. Pair-wise comparison of MCP-1 from day + 30 to + 60 in patients without (left) or with (right) significant CMV reactivation (≥ 600 copies/µL) in the placebo group. *P < 0.05; ****P < 0.0001.\nFlow cytometry. Antibody stained single-cell suspensions were analyzed on an LSR Fortessa™ cytometer in Australia or a FACSymphony™ A3 in Seattle USA (Becton Dickinson) and data are processed using FlowJo version 10 (Tree Star). Cytokines levels in the plasma were determined with the BD Cytometric Bead Array system (BD Biosciences).\nFurthermore, high level HCMV reactivation (≥ 600 copies/ul) was associated with a greater increase in MCP-1 between day + 30 and + 60 than seen in patients with low level reactivation (FIG. 11D). […]"}, "HCMV-specific IgG": {"test_system": "HCMV-specific IgG", "assay": "HCMV-specific IgG titers in plasma at day +30 after BMT (chemiluminescence, Diasorin Liaison XL)", "description": "FIGS. 8A through 8C. IL-6 inhibition with tocilizumab is associated with the maintenance of human CMV (HCMV)-specific IgG. FIGS. 8A to 8C. Quantification of HCMV-specific IgG titers in plasma at day + 30 after bone marrow transplantation (BMT). FIG. 8A. D^-R^+ and D^+R^+ patients are classified into 3 groups based on HCMV reactivation (reactivation before day + 35, reactivation between day + 35 and + 100, no reactivation by day + 100) and respective HCMV-specific IgG titers are shown. FIG. 8B. HCMV-specific IgG in D^-R^+ and D^+R^+ patients are shown for tocilizumab (TCZ) versus placebo control (Ctrl) groups (left). The analysis for the subset of unrelated transplants is shown right. FIG. 8C. Titers of HCMV-specific IgG in D^+R^- patients are shown for TCZ versus placebo control groups. Dotted lines indicate detection limit of the HCMV-IgG assay (5 -180 U/mL).\nTotal and HCMV-specific IgG. The concentration of total IgG was determined with Enzyme-linked immunosorbent assay (Invitrogen) as per the manufacturer’s protocol. Quantification of HCMV IgG was conducted by Sullivan Nicolaides Pathology Queensland (Bowen Hills, QLD, Australia) using a chemiluminescence method on the Diasorin Liaison® XL platform. This semiquantitative method allows for a detection range of 5 - 180 Unit/mL.\nGiven the lack of effects of IL-6 inhibition on T and B cells, HCMV-specific IgG was quantified after BMT. […]"}, "HCMV specific T cells": {"test_system": "HCMV specific T cells", "assay": "HCMV-specific CD8+ T cells and T cell memory phenotype in PBMC at day +60 after BMT (flow cytometry)", "description": "(§2) FIGS. 7A through 7G. […] Patients included for the evaluation of human CMV (HCMV) reactivation (as in FIG. 6) were analyzed for HCMV specific T cells and other immune subsets. A total of 50 PBMC samples at day + 60 after bone marrow transplantation (BMT) were identified based on availability of HCMV tetramers and peptides. FIG. 7A. Frequency of HCMV tetramer positive CD8^+ T cells in patients with or without HCMV reactivation. FIG. 7B. Frequency of cytokine (IFNy^+TNF^+) producing CD8^+ T cells following HCMV peptide stimulation in patients with or without HCMV reactivation. FIG. 7C. Frequency of HCMV tetramer positive CD8^+ T cells in patients receiving tocilizumab (TCZ) (n = 21) or placebo control (Ctrl) (n = 29). FIG. 7D. Frequency of cytokine (IFNv^+TNF^+) producing CD8^+ T cells in patients receiving TCZ or placebo. FIG. 7E. Memory phenotype for CD4^+ T cells in patients receiving TCZ or placebo. FIG. 7F. Memory phenotype for CD8^+ T cells in patients receiving TCZ or placebo. FIG. 7G. Proportions of naive B cells, mature B cells and plasmablasts in a subset of the above cohort (n = 19 for control and 17 for TCZ groups respectively). *P < 0.05.\nNext the effect of IL-6 inhibition was investigated on donor T and B cell responses after BMT. Firstly, HCMV-specific CD8^+ T cells defined by HCMV-tetramer staining or cytokine production (IFNγ and/or TNF) were analyzed following HCMV peptide stimulation in conjunction with markers of T cell memory (CD45RA and CCR7). The inventors identified 50 PBMC samples at day + 60 after BMT based on availability of HCMV tetramers (and/or peptides). […] Within the subset of patients with HCMV reactivation, HCMV tetramer^+ cells were present at a lower frequency in patients with higher HCMV viremia (FIG. 7A right)."}, "HCMV [1]": {"test_system": "HCMV", "assay": "phase III randomized placebo-controlled trial: HCMV viremia and cumulative incidence of HCMV reactivation after allogenic BMT", "description": "FIGS. 6A through 6D. IL-6 inhibition with tocilizumab reduces human CMV (HCMV) reactivation in clinical allogenic bone marrow transplantation (BMT) recipients. Participants of a phase 3 clinical trial who were enrolled at Royal Brisbane and Women’s Hospital and were at-risk of HCMV reactivation were included for analysis (n = 85). These patients were either seropositive for HCMV (R^+) or received grafts from seropositive donors (D^+). FIGS. 6A to 6C. Cumulative incidence of any detectable HCMV reactivation after BMT in at-risk patients. Solid lines represent the tocilizumab (TCZ) group and broken lines represent the placebo control group. FIG. 6A. HCMV reactivation in the total cohort (left) or the subset of patients with grade 0 - I acute graft versus host disease (aGVHD) (right). FIG. 6B. HCMV reactivation in all recipients of volunteer unrelated donor (VUD) grafts (left) or the subset of patients with grade 0 - I aGVHD (right). FIG. 6C. HCMV reactivation in all recipients of matched sibling donor (MSD) grafts (left) or those with grade 0 - I aGVHD (right). FIG. 6D. Distribution of HCMV serostatus (D^+R^-, D^+R^+ and D^-R^+) in recipients of MSD or VUD grafts.\nas §1\n(§3) Patients. Patients were enrolled in reported phase I/II (ACTRN12612000726853) or phase III (ACTRN12614000266662) clinical trials. The studies were approved by the Royal Brisbane and Womens Hospital institutional human ethics committee and all patients provided signed informed consent.\n(§4) HCMV monitoring. CMV viral load was monitored using the COBAS® Amplicor CMV Monitor test (Roche Diagnostics, Basel, Switzerland) as previously described (Tey SK, Kennedy GA, Cromer D, Davenport MP, Walker S, Jones LI, et al. Clinical assessment of anti-viral CD8+ T cell immune monitoring using QuantiFERON-CMV® assay to identify high risk allogeneic hematopoietic stem cell transplant patients with CMV infection complications. PloS one. 2013, 8(10), e74744). Cumulative incidence of any detectable HCMV viremia is plotted up to day + 100 after BMT and HCMV is censored at day + 100 of BMT or the time of death if this occurred prior to day 100.\nStatistics. Results are presented as median ± interquartile range and the Mann-Whitney U test was used for comparisons. Wilcoxon test is conducted for pair-wise comparisons. Ordinary least-squares method was used in the linear or semi-log regression analysis. A two-sided P value of 0.05 was considered statistically significant. […]"}, "HCMV [2]": {"test_system": "HCMV", "assay": "phase I/II clinical trial of tocilizumab added to standard GVHD prophylaxis: HCMV reactivation vs historical cohort", "settings": "at risk BMT recipients; compared to non-randomized similarly transplanted historical cohort", "description": "FIGS. 9A through 9C. IL-6 inhibition with tocilizumab is associated with low rates of significant CMV reactivation relative to historical controls. Human CMV (HCMV) viremia over time after bone marrow transplantation (BMT) in patients from (FIG. 9A) a phase I/II clinical trial of the addition of tocilizumab to standard graft versus host disease (GVHD) prophylaxis (left) or (FIG. 9B) a contemporaneous historical control cohort (right). FIG. 9C. Depiction of CMV reactivation > 600 versus < 600 copies/µL of plasma in the two patient cohorts.\nas §3\nas §4, with “Cumulative incidence of any detectable HCMV viremia is plotted up to day + 100 after BMT and HCMV is censored at day + 100 of BMT or the time of death if this occurred prior to day 100.” left out"}, "CD19+ B cells": {"test_system": "CD19+ B cells", "assay": "B cell subsets and B cell counts in peripheral blood after clinical BMT", "description": "as §2\nFIGS. 12A through 12B. The effects of IL-6 inhibition with tocilizumab (TCZ) on B cell recovery following clinical BMT. FIG. 12A. B cell counts in peripheral blood in at-risk patients at day + 30 and + 60 after BMT. FIG. 12B. B cell counts in peripheral blood at day + 60 after bone marrow transplantation (BMT), classified into 4 groups based on the TCZ administration and the presence of acute graft versus host disease (aGVHD).\nFurthermore, there was no difference in the memory phenotypes of CD4^+ and CD8^+ T cells between placebo and TCZ treated patients (FIGS. 7E - 7F). The inventors also analyzed CD19^+ B cells in available samples (n = 19 for Ctrl and n = 17 for TCZ)."}}}
{"substance": "tocilizumab", "values": [{"measurement": "increase of plasma MCP-1 with HCMV reactivation (≥ 600 copies/ul)", "setting": "MCP-1", "result": "not observed"}, {"measurement": "effect on HCMV-IgG titers by graft type", "setting": "HCMV-specific IgG; day +30 plasma, VUD subset", "result": "predominantly observed in recipients of VUD grafts"}, {"measurement": "HCMV-IgG in day +30 plasma", "setting": "HCMV-specific IgG; seropositive recipients (D-R+ and D+R+), TCZ vs placebo", "result": "higher"}, {"measurement": "frequency of cytokine-producing CD8+ T cells", "setting": "HCMV specific T cells; day +60 PBMC, HCMV peptide stimulation, TCZ vs placebo", "result": "did not have any significant effect"}, {"measurement": "frequency of HCMV-tetramer+CD8+ T cells", "setting": "HCMV specific T cells; day +60 PBMC, TCZ (n = 21) vs placebo (n = 29)", "result": "did not have any significant effect"}, {"measurement": "memory phenotypes of CD4+ and CD8+ T cells", "setting": "HCMV specific T cells; placebo vs TCZ treated patients", "result": "no difference"}, {"measurement": "benefit from treatment by serostatus", "setting": "HCMV [1]; HCMV seropositive patients receiving seronegative grafts (D-R+)", "result": "maximum benefit"}, {"measurement": "HCMV viremia", "setting": "HCMV [1]; TCZ vs placebo, at-risk patients (n = 85)", "result": "a trend towards lower HCMV viremia"}, {"measurement": "HCMV reactivation, TCZ versus placebo", "setting": "HCMV [1]; recipients of matched sibling donor grafts", "result": "no difference"}, {"measurement": "protection on HCMV reactivation", "setting": "HCMV [1]; recipients of volunteer unrelated donor (VUD) grafts, independent of acute GVHD", "result": "most profound"}, {"measurement": "cumulative incidence of HCMV reactivation", "setting": "HCMV [1]; total cohort, TCZ vs placebo, independent of acute GVHD", "result": "a trend towards lower cumulative incidence"}, {"measurement": "rates of significant HCMV reactivation requiring preemptive therapy (> 600 copies/µL)", "setting": "HCMV [2]", "result": "low rates"}, {"measurement": "absolute numbers of B cells in blood", "setting": "CD19+ B cells; day +30 or +60, presence or absence of TCZ", "result": "not different"}, {"measurement": "B cell suppression in patients with grade II-IV acute GVHD", "setting": "CD19+ B cells; day +60", "result": "did appear to mitigate"}, {"measurement": "frequencies of IgD+CD27- naïve B cells, IgD-CD27+ mature B cells or CD38hi plasmablasts", "setting": "CD19+ B cells; n = 19 Ctrl, n = 17 TCZ", "result": "did not impact"}]}
